# Experiment: Aqueous stability in formulation vehicle (% substrate remaining)
# Format: physicochemical
# Conditions: 0.0005% w/w (5 ppm) compound in aqueous formulation vehicle, pH 6
% Substrate Remaining (7 days/25° C.) [%],% Substrate Remaining (7 days/40° C.) [%],% Substrate Remaining (28 days/25° C.) [%],SMILES
95.5,49.2,82.6,CC[N+](C)(CC)CCCOC(=O)COc1cccc(NC(=O)c2cc(-c3cccc(F)c3)ccc2F)c1
92,78.8,78,CN(C)c1ccc(OC(=O)COc2cccc(NC(=O)c3cc(-c4cccc(F)c4)ccc3F)c2)cc1
61.5,18,12,O=C(COc1cccc(NC(=O)c2cc(-c3cccc(F)c3)ccc2F)c1)Oc1ccc(CN2CCOCC2)cc1
101.2,92,94.4,CCN(CC)CCCC(C)OC(=O)COc1cccc(NC(=O)c2cc(-c3cccc(F)c3)ccc2F)c1 (stereo not drawn)
